Assay results as given in US20040072744A1, “Synthetic peptide as treatment for down's syndrome and schizophrenia” (priority 2002, published 2004).
“Also recorded” adds a separate entry of the source.

B1: NGF (protein)
chain: EDHPVHNLGEHSVCDSVSAWVTKTTATDIKGNTVTVMENVNLDNKVYKEYFFETKCKNPNPEPSGCRGIDSSHWNSYCTETDTFIKALTMEGNQASWRFIRIDTACVCVITKKTGN

Experiments:
[1] = tested on: NGF; assay: NGF content in organ homogenates of orally treated mice by ELISA using anti-NGF; assay type: in vivo, Balb/c male mice; details: oral 100 μg/mouse for 7 days
Protocol: One year old Balb/c male mice (considered to be retired and non-productive) were given Adesh-10 orally for seven consecutive days, and the control set of mice received PBS. Two days after the completion of the treatment, the mice were sacrificed for organs. Organ homogenates were assayed for NGF content by simple enzyme-linked immunosorbent assay (ELISA), using anti-NGF.
Preparation of organ homogenates: Mice were used in compliance with U.S. Public Health Service policy on humane care and use of animals. One-year-old Balb/c male mice were divided into two groups each consisting of five. Mice in group I were given orally 100 μg/mouse in 50 μl volume of Adesh-10, the synthetic analog of NGF for seven consecutive days. The group II mice were given similar volume of PBS. Two days after the completion of the treatment with Adesh-10 or PBS the mice were sacrificed for organs. Organs from five of each group of mice were collected and one type of organ from five were pooled. The pool of the organs was homogenized in PBS by manual homogenizer. The homogenates were centrifuged and the supernatants for each pool organ were separated. Protein concentration for each supernatant was measured on spectrophotometer using a protein kit from Bio-Rad (USA catalogue 500-0006). The protein concentrations of the supernatants were adjusted to 100 μg/ml with PBS, as stocks for further testing.
Enzyme-linked immunosorbent assay (ELISA): ELISA tests were carried out in 96 well microtiter plates. The reagents for ELISA were purchased from Sigma-Aldrich Co. The stocks from mouse organs were diluted with carbonate-bicarbonate buffer of pH 9.4 to 10 μg/ml as coating antigen for ELISA. The wells of the plate were coated with antigen, 100 μl/well. The plate was left at room temperature (RT) overnight, after which it was emptied and washed three times (3×) with PBS. The wells were blocked with 250 μl/well of 3% fish skin gelatin. After 30 min. the plate was emptied and washed 3× with PBS. Anti-NGF made in rabbit was diluted from 1:300 in gelatin. Three wells received 100 μl of each dilution of anti-serum. Two-fold diluted anti-sera were used from 1:300 in triplicate. The antigen controls without antibody were incorporated. The plate was incubated at 37° C. in a humid incubator for 1 hr after which the plate was washed 3× with PBS. The horseradish peroxidase conjugated with rabbit IgG 100 μl/well were reacted, for 30 min. Finally, after washing, the wells of the plate were reacted with O-phenylenediamine-HCl (OPD) for color development. The plate was read after 30 min. and the OD was recorded at […]. The average of triplicate readings was expressed as ELISA titer/100 μl.
One year old Balb/c male mice were used for this research. Ten mice were used consisting of two groups five of each. Mice in group I were given orally 100 μg/mouse in 50 μl volume of Adesh-10, synthetic analog of NGF for seven consecutive days. The group II mice were given similar volume of PBS. Two days after the completion of the treatment the mice were sacrificed for organs. Organ homogenates were assayed for NGF by ELISA.

[2] = tested on: PC 12 cells; assay: Toxicity to PC12 cells; assay type: cell-based, rat
Protocol: (§1) Adesh-10 (SEQ. ID. NO.: 2) is considered exemplary of the Adesh family of peptides and has been studied and tested to illustrate the invention. Venom derived NGF produced neurites on PC12 cells at 5 ng/ml while the concentration of Adesh-10 required was 1 μg/ml. NGF is toxic to PC 12 cells at the concentration of 5 μg/ml, while Adesh-10 is not toxic up to 100 μg/ml.

[3] = tested on: simian rotavirus (SA11); assay: Kinetics of replication of SA11 virus in MA104 cells in serum free medium with supplement; assay type: cell-based; details: 1 μg/ml trypsin; for SA11 virus titer Day 2: 1 μg/ml NGF or 5 μg/ml Adesh-10, day 2; for SA11 virus titer Day 4: 1 μg/ml NGF or 5 μg/ml Adesh-10, day 4; for SA11 virus titer Day 6: 1 μg/ml NGF or 5 μg/ml Adesh-10, day 6; for SA11 virus titer Day 8: 1 μg/ml NGF or 5 μg/ml Adesh-10, day 8
[4] = tested on: influenza virus A/TAI strain; assay: Kinetics of replication of influenza A/TAI virus in MDCK cells in serum free medium with supplement; assay type: cell-based; details: 1 μg/ml trypsin; for A/TA1 virus titer Day 2: 1 μg/ml NGF or 5 μg/ml Adesh-10, day 2; for A/TA1 virus titer Day 4: 1 μg/ml NGF or 5 μg/ml Adesh-10, day 4; for A/TA1 virus titer Day 6: 1 μg/ml NGF or 5 μg/ml Adesh-10, day 6
[5] = tested on: PC12 cells; assay: Neurite production on PC12 cells; assay type: cell-based, rat
Protocol: as §1

[6] = tested on: Down syndrome children; assay: Treatment of Down syndrome children; assay type: in vivo, human; details: 100 μg/day, orally under the tongue or sub cutaneous injection
Protocol: In Humans: Several Down syndrome children were treated with Adesh-10. Adesh-10 was administered in the amount of 100 μg/day, either orally under the tongue, or by sub cutaneous injection.

[7] = tested on: Alzheimer's patients; details: oral administration, human clinical trials; cited from earlier work

| Molecule | concentration toxic to PC 12 cells [2] [µg/mL] | SA11 virus titer Day 2 [3] [Log TCID50/ml] | SA11 virus titer Day 4 [3] [Log TCID50/ml] | SA11 virus titer Day 6 [3] [Log TCID50/ml] | SA11 virus titer Day 8 [3] [Log TCID50/ml] | A/TA1 virus titer Day 2 [4] [Log TCID5/ml] | A/TA1 virus titer Day 4 [4] [Log TCID5/ml] | A/TA1 virus titer Day 6 [4] [Log TCID5/ml] | other results |
| --- | --- | --- | --- | --- | --- | --- | --- | --- | --- |
| N L G E H P V C D S (NLGEHPVCDS; CORRESPONDS TO POSITIONS 1-10 OF SEQ. ID. NO. 1) [Adesh-10] | > 100 | 3 | 6 | 6.5 | 8 | 4 | 5.1 | 6.2 | NGF concentration in organ, Treated: Bone ([1]; Bone, one year old male mice, organs 2 days after treatment): 900 ELISA titer/100 μl; NGF concentration in organ, Treated: Brain ([1]; Brain, one year old male mice, organs 2 days after treatment): 2400 ELISA titer/100 μl; NGF concentration in organ, Treated: Heart ([1]; Heart, one year old male mice, organs 2 days after treatment): 2400 ELISA titer/100 μl; NGF concentration in organ, Treated: Kidney ([1]; Kidney, one year old male mice, organs 2 days after treatment): 1800 ELISA titer/100 μl; NGF concentration in organ, Treated: Liver ([1]; Liver, one year old male mice, organs 2 days after treatment): 2400 ELISA titer/100 μl; NGF concentration in organ, Treated: Lung ([1]; Lung, one year old male mice, organs 2 days after treatment): 1800 ELISA titer/100 μl; NGF concentration in organ, Treated: Muscle ([1]; Muscle, one year old male mice, organs 2 days after treatment): 2400 ELISA titer/100 μl; NGF concentration in organ, Treated: Pancreas ([1]; Pancreas, one year old male mice, organs 2 days after treatment): 1200 ELISA titer/100 μl; NGF concentration in organ, Treated: Salivary ([1]; Salivary, one year old male mice, organs 2 days after treatment): 1200 ELISA titer/100 μl; NGF concentration in organ, Treated: Skin ([1]; Skin, one year old male mice, organs 2 days after treatment): 1200 ELISA titer/100 μl; NGF concentration in organ, Treated: Spleen ([1]; Spleen, one year old male mice, organs 2 days after treatment): 1200 ELISA titer/100 μl; NGF concentration in organ, Treated: Testis ([1]; Testis, one year old male mice, organs 2 days after treatment): 1800 ELISA titer/100 μl; increase in NGF level versus control ([1]; brain, muscle and testis): twofold increase; concentration required to produce neurites on PC12 cells [5]: 1 µg/mL; clinical effect in Down's syndrome children [6]: good results; also recorded: improved physical, vocal, learning and memory abilities |
| O=C(CCn1cnc2c(=O)[nH]cnc21)Nc1ccc(C(=O)[O-])cc1.[K+] [AIT-082] | – | – | – | – | – | – | – | – | efficacy in Alzheimer's patients versus placebo [7]: no difference between Alzheimer's patients treated with AIT-082 and placebo |
| Trypsin [reference compound] | – | 6.5 | 7.2 | 8 | 8.5 | 5.6 | 6 | 6.5 | – |
| B1 | 5 | 4 | 7 | 7.5 | 8.2 | 5 | 5.5 | 6.1 | concentration producing neurites on PC12 cells [5]: 5 ng/mL |
